Test results taken from EP0520823A2, “Non-substrate peptide inhibitors of farnesyl protein transferase” (MERCK & CO. INC., priority 1991, dated 1992).
Where a SMILES comes first, the peptide text is derived from it. [ ]: non-standard residue; d: D form.

How the values were obtained:
[1] = target: T1, Farnesyl-protein transferase from bovine brain (partially purified) (Bos taurus, UniProt P29702+P49355); test: Inhibition of Ras farnesylation by tetrapeptides; assay type: biochemical; conditions: Ras-CVLS at 3.5 µM, 0.25 µM [³H]FPP; average of 2-5 determinations
T1 construct: Cerebral lobes from bovine brains were homogenized in lysis buffer; from tissue; host or cells: bovine brain (cerebral lobes)
Protocol: The quenched reactions were allowed to stand for 15 minutes (to complete the precipitation process).
Fractions (20 mL) were collected and those containing farnesyl-protein transferase activity were pooled.
Single capital letter amino acid abbreviations are used above.

[2] = tested on: partially pure bovine brain farnesyl-protein transferase; test: Tetrapeptides tested as farnesylation substrates ([3H]FPP, TLC, autoradiography); assay type: biochemical; conditions: peptide 200 µM, 0.5 µM [3H] FPP, 30 min. at 30°C
Protocol: When a peptide was used as the acceptor substrate, there were two changes to the assay: (1) Ras protein was excluded and, (2) the reactions were stopped by the additon of one tenth volume of 0.5 M EDTA. […] After drying under vacuum, the plates were sprayed with […] exposed to X-ray film at -70°C. […] These Rf values reflect TLC conditions using ethylacetate:pyridine: acetic acid:water (10:5:1:3) as the eluent. […] CAIS (Rf=0.84) and CAIM (Rf=0.83)). Quenched reaction mixtures containing peptide, farnesyldiphosphate and farnesyl-protein transferase were separated by TLC followed by visualization of the radioactive species by autoradiography. […] Control peptides having a […] substitution were not substrates. […] Autoradiographic exposure time was overnight (15-20 hr).

[3] = tested on: bovine brain farnesyl-protein transferase; conditions: earlier findings (Schaber et al.); cited from earlier work

Row | Compound | IC50 [1] | Farnesylation substrate [2] | substrate for isoprenylation [3]
1 | CC(=O)N[C@H](CS)C(=O)N[C@H](C(=O)N[C@@H](CC(C)C)C(=O)N[C@@H](CO)C(=O)O)C(C)C [N-Ac-(dC)VLS] (Ac-[dC]VLS-OH) | 60 µM | + (+ > 90% [^3H] farnesyl diphosphate converted to [^3H] farnesyl tetrapeptide) | –
2 | CC(C)C[C@H](NC(=O)[C@@H](NC(=O)[C@@H](N)CS)C(C)C)C(=O)N[C@H](CO)C(=O)O [CVL(dS)] | 11 µM | + (+ > 90% [^3H] farnesyl diphosphate converted to [^3H] farnesyl tetrapeptide) | –
3 | SSGCVLS [heptapeptide SSGCVLS] | – | – | served as a substrate for isoprenylation
4 | CC(C)C[C@@H](NC(=O)[C@@H](NC(=O)[C@@H](N)CS)C(C)C)C(=O)N[C@@H](CO)C(=O)O [CV(dL)S, Cys-Val-D-Leu-Ser] | 20 µM | - (- < 1% conversion) | –
5 | CC(=O)N[C@@H](CS)C(=O)N[C@H](C(=O)N[C@@H](CC(C)C)C(=O)N[C@@H](CO)C(=O)O)C(C)C [N-Ac-CVLS] (Ac-CVLS-OH) | 2 µM | + (+ > 90% [^3H] farnesyl diphosphate converted to [^3H] farnesyl tetrapeptide) | –
6 | CC(C)C[C@H](NC(=O)[C@@H](NC(=O)[C@@H](N)CO)C(C)C)C(=O)N[C@@H](CO)C(=O)O [SVLS] (H-SVLS-OH) | – | - (- < 1% conversion) | –
7 | CSCC[C@H](NC(=O)[C@@H](Cc1ccccc1)NC(=O)[C@@H](NC(=O)[C@@H](N)CS)C(C)C)C(=O)O [CV(dF)M, Cys-Val-D-Phe-Met] | – | - (- < 1% conversion) | –
